# Measurements taken from patent US20050010368A1, “Method for the prediction of binding targets and the design of ligands” (priority 1997, published 2005).
# Like-named read-outs stand apart in the source and are kept apart here.
# What was measured:
# [1] = target: T1, V82A mutant HIV-1 protease (Human immunodeficiency virus type 1 group M subtype B, UniProt P04585, V570A); conditions: V82A mutant vs wild type; Baldwin et al., 1995; cited from earlier work
# T1 construct: the complex of A77003 with the V82A mutant HIV-1 protease
# [2] = target: HIV-1 protease (Human immunodeficiency virus type 1 group M subtype B, UniProt P04585); experiment: Structure-based thermodynamic calculation of inhibitor binding to HIV-1 protease
# Description: In all cases presented here the Gibbs energy of binding, ΔG, was calculated from the published crystallographic structures using procedures previously described (D'Aquino et al., 1996; Gomez et al., 1995(a); Gomez et al., 1995(b); Hilser et al., 1996(b); Luque et al., 1996). These calculations require the structures of the complex as well as the structures of the unligated protein and unligated inhibitor. In this approach, the generic portion of the Gibbs energy, ΔGgen, is calculated from a separate computation of its enthalpy and entropy components. […]
# The most significant structural/solvation contributions to the total free energy of binding are contained in the term […] which is calculated by estimating separately its enthalpy and entropy components. […]
# The changes in accessible surface areas were calculated by implementing the Lee and Richards algorithm (Lee et al., 1971). […]
# In binding or folding, the bulk of the enthalpy change originates from the formation of internal interactions (van der Waals, hydrogen bonds, etc.) and the parallel desolvation of the interacting groups. […] For example, it has been shown that for binding processes in which protons are either released or absorbed the measured enthalpy depends on the ionization enthalpy of the buffer (Gomez et al., 1995(b)). […]
# [3] = target: T2, endothiapepsin (Cryphonectria parasitica, UniProt P11838); assay type: biochemical
# Description: The ΔΔG values are relative to the wild type. […] To test the structure-based thermodynamic prediction, the A5F mutant of pepstatin A was synthesized and the overall inhibition constant determined experimentally.
# [4] = target: T2, endothiapepsin; conditions: reference cited, cited from earlier work
# [5] = target: T2, endothiapepsin
# Description: The second mutation considered in this study involved the addition of an amino acid at the carboxy terminus of the peptide.
# [6] = target: T2, endothiapepsin; conditions: relative to wild type pepstatin A
# Description: In all cases, the coordinate sets for the complexes between the protein and the mutated peptides are generated by using the coordinates of the wild type complex as a template. Replacement mutants are created by replacing the original side chain with the desired mutation, leaving the backbone in the original conformation. For mutations that involve the addition of an extra amino acid at either end of the peptide chain, the backbone torsional angles are also included in the minimization.
# The inhibitor contains two residues of the unusual amino acid statine (Sta: 4(S)-amino-3(S)-hydroxy-6methylheptanoic acid). […] Two different mutations of pepstatin A were studied. […] Twelve possible mutations at this position were considered (Cys, Gly, His, Ile, Leu, Met, Phe, Ser, Thr, Trp, Tyr, Val). For each of these mutations, the most probable conformation was identified. In the second case, the addition of an amino acid at the carboxy terminus of pepstatin A was considered. In this case, a simultaneous optimization of side chain and backbone conformations was performed in order to identify the most probable conformation.
# T2 sequence (P11838 90-419): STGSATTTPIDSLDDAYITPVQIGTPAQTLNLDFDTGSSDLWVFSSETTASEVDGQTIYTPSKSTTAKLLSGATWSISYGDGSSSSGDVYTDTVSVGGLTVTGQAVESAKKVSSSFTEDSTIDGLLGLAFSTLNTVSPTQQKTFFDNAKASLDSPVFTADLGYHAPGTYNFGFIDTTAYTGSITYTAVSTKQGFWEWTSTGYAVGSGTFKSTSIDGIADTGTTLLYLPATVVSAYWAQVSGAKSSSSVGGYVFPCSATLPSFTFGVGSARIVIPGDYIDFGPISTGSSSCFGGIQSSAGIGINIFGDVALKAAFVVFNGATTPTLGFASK
compound,measurement,setting,value
CC(C)[C@H](NC(=O)N(C)Cc1ccccn1)C(=O)N[C@@H](Cc1ccccc1)[C@H](O)[C@H](O)[C@H](Cc1ccccc1)NC(=O)[C@@H](NC(=O)N(C)Cc1ccccn1)C(C)C [A77003],reduction in binding affinity measured experimentally,[1],4 fold
CC(C)CN(C[C@@H](O)[C@H](Cc1ccccc1)NC(=O)O[C@H]1CCOC1)S(=O)(=O)c1ccc(N)cc1 [VX478],ΔΔG,[2],-563 cal/mol
Iva-Val-Val-Sta-Ala-Sta [Pepstatin A],ΔG(25)exp,[3]; experimental binding Gibbs energy at 25° C.,-12.7 kcal/mol
same,ΔH of binding,[4]; measured under the same conditions (16° C.),-4.1 kcal/mol
same,ΔCp of binding,[4]; measured under the same conditions,−310 cal/K•mol
Iva-Val-Val-Sta-Ala-Sta-Glu,enthalpy change (ΔH) of binding,"[5]; 16° C., calorimetric",-4.6 ± 0.1 kcal/mol
same,heat capacity change (ΔCp),[5]; from temperature dependence of the binding enthalpy change,−260±20 cal/K•mol
same,binding affinity relative to wild type pepstatin A,[3],lower affinity
same,ΔG(25)exp,[3],-11.3 kcal/mol
Iva-Val-Val-Sta-Phe-Sta,binding affinity relative to wild type pepstatin A,[3],higher affinity
same,deviation of ΔG from its predicted value,[3],0.2 kcal/mol
same,ΔG(25)exp,[3],-13.3 kcal/mol
same,Gibbs energy of binding more favorable than the wild type,[6],about 1 kcal/mol
